# Assay results from patent US9968649B2, “Vasopressin formulations for use in treatment of hypotension” (Par Pharmaceutical, Inc., priority 2015, dated 2018).
# Values joined by “and” are separate entries in the source; they are usually repeats but may differ in a detail not shown here. Equal values may be shown once. Read-outs that look alike come from different tables or passages of the source.
# Tests used:
# [1] = Investigation of pH: vasopressin stability by HPLC after 60° C. for one week (Example 2); type: physicochemical; conditions: 10 mM citrate buffer in isotonic saline
# Method: To determine a possible pH for a vasopressin formulation with good shelf life, vasopressin formulations were prepared in 10 mM citrate buffer diluted in isotonic saline across a range of pH. Stability was assessed via HPLC as in EXAMPLE 1 after incubation of the formulations at 60° C. for one week. FIG. 9 illustrates the results of the experiment. […] At pH 3.5, the percent label claim (% LC) of vasopressin was highest, and the proportion of total impurities was lowest.
# [2] = Effect of pH 3.5-4.5 on vasopressin formulations, four weeks at 25° C. or 40° C. (Example 9); type: physicochemical
# Method: To test of effect of pH on vasopressin formulations, solutions containing 20 units/mL vasopressin, adjusted to pH 3.5, 3.6, 3.7, 3.8, 3.9, 4, 4.1, 4.2, 4.3, 4.4, or 4.5 with 10 mM acetate buffer, were prepared. One mL of each of the vasopressin formulations was then filled into 10 cc vials.
# The vasopressin formulations were stored for four weeks at: (i) 25° C.; or (ii) 40° C., and the assay (% label claim; vasopressin remaining) and % total impurities after four weeks were measured using the methods described in EXAMPLE 1. FIGS. 11 and 12 below display the results of the experiments at 25° C. The results of the experiments at 40° C. are included in FIGS. 13 and 14.
# [3] = Particulate matter (USP) of stored samples (Example 8); type: physicochemical; conditions: inverted
# Method: (§1) Experiments were also conducted on the same samples above over the course of the experiments to measure the amount of individual impurities in the samples, pH of the samples, chlorobutanol content, particulate matter, antimicrobial effectiveness, and bacterial endotoxin levels (TABLES 25-42). (NR=no reading; ND=not determined; UI=unidentified impurity).
# [4] = system: Chinese hamster ovary (CHO) cell; test: In vitro Chinese hamster ovary (CHO) cell chromosome aberration test; type: cell-based
# [5] = system: patients with vasodilatory shock; conditions: cited from earlier work
# [6] = pH of stored samples (Example 8); type: physicochemical; conditions: inverted
# Method: as §1
# [7] = cited from earlier work
# [8] = type: physicochemical
# [9] = Chlorobutanol content of stored samples (Example 8); type: physicochemical; conditions: inverted
# Method: as §1
# [10] = cited from earlier work; remark: listed apart in the source
structure (smiles),measurement,setting,value
"NC(=O)CC[C@@H]1NC(=O)[C@H](Cc2ccccc2)NC(=O)[C@H](Cc2ccc(O)cc2)NC(=O)[C@@H](N)CSSC[C@@H](C(=O)N2CCC[C@H]2C(=O)N[C@@H](CCCN=C(N)N)C(=O)NCC(N)=O)NC(=O)[C@H](CC(N)=O)NC1=O [Vasopressin, Cyclo (1-6) L-Cysteinyl-L-Tyrosyl-L-Phenylalanyl-L-Glutaminyl-L-Asparaginyl-L-Cysteinyl-L-Prolyl-L-Arginyl-L-Glycinamide]","pH at which the greatest level of stability was observed (highest % LC, lowest total impurities)",[1],3.5
same,pH providing the highest stability,[2]; 25° C.,3.7
same,pH with lowest level of impurities within pH 3.6 to 3.8,[2]; 25° C.,3.8
same,pH providing the highest stability,[2]; 40° C.,3.6
same,pH with lowest level of impurities within pH 3.6 to 3.8,[2]; 40° C.,3.8
same,Particulate Matter (USP) (≥10 μm),"[3]; 5° C., 1 month",1 and 2
same,Particulate Matter (USP) (≥25 μm),"[3]; 5° C., 1 month",0
same,Particulate Matter (USP) (≥10 μm),"[3]; 5° C., 2 months",1
same,Particulate Matter (USP) (≥25 μm),"[3]; 5° C., 2 months",0
same,Particulate Matter (USP) (≥10 μm),"[3]; 5° C., 3 months",1 and 2
same,Particulate Matter (USP) (≥25 μm),"[3]; 5° C., 3 months",0
same,Particulate Matter (USP) (≥10 μm),"[3]; 5° C., 6 months",2 and 1
same,Particulate Matter (USP) (≥25 μm),"[3]; 5° C., 6 months",0
same,Particulate Matter (USP) (≥25 μm),"[3]; 5° C., 9 months",0
same,Particulate Matter (USP) (≥10 μm),"[3]; 5° C., 12 months",2
same,Particulate Matter (USP) (≥25 μm),"[3]; 5° C., 12 months",0
same,Particulate Matter (USP) (≥25 μm),"[3]; 5° C., 18 months",0
same,Particulate Matter (USP) (≥25 μm),"[3]; 5° C., 24 months",0
same,Particulate Matter (USP) (≥25 μm),"[3]; 5° C., Initial",0
same,Particulate Matter (USP) (≥10 μm),"[3]; 40° C., 1 month",1
same,Particulate Matter (USP) (≥25 μm),"[3]; 40° C., 1 month",0
same,Particulate Matter (USP) (≥10 μm),"[3]; 40° C., 2 months",1
same,Particulate Matter (USP) (≥25 μm),"[3]; 40° C., 2 months",0
same,Particulate Matter (USP) (≥10 μm),"[3]; 40° C., 3 months",1
same,Particulate Matter (USP) (≥25 μm),"[3]; 40° C., 3 months",0
same,Particulate Matter (USP) (≥10 μm),"[3]; 40° C., Initial",1
same,Particulate Matter (USP) (≥25 μm),"[3]; 40° C., Initial",0
same,CHO cell chromosome aberration test result,[4],negative
same,time for pressor effect to fade,[5]; after stopping the infusion,≤ 20 min
same,time of peak pressor effect,[5]; infusion of exogenous vasopressin,≤ 15 min
same,hemodynamic effect at therapeutic doses,[5]; patients with vasodilatory shock,increases systemic vascular resistance and mean arterial blood pressure
same,tachyphylaxis or tolerance to the pressor effect,[5]; patients,no evidence for tachyphylaxis or tolerance
same,pH,"[6]; 5° C., 1 month",3.5 and 3.6
same,pH,"[6]; 5° C., 2 months",3.5 and 3.6
same,pH,"[6]; 5° C., 3 months",3.5 and 3.6
same,pH,"[6]; 5° C., 6 months",3.5 and 3.6
same,pH,"[6]; 5° C., 9 months",3.5 and 3.6
same,pH,"[6]; 5° C., 12 months",3.5 and 3.6
same,pH,"[6]; 5° C., 18 months",3.8 and 3.6 and 3.5
same,pH,"[6]; 5° C., 24 months",3.5 and 3.6
same,pH,"[6]; 5° C., Initial",3.5 and 3.6
same,pH,"[6]; 40° C., 1 month",3.3
same,pH,"[6]; 40° C., 2 months",3.2
same,pH,"[6]; 40° C., 3 months",3.1
same,pH,"[6]; 40° C., Initial",3.5
same,dose excreted unchanged in urine,"[7]; human, in vivo",about 6%
same,apparent half-life,[7]; infusion rates 0.01-0.1 units/minute,≤ 10 min
same,pH with lowest level of impurities within pH 3.6 to 3.8,[8]; pH 3.6,3.8
same,pH with lowest level of impurities within pH 3.7 to 3.8,[8]; pH 3.7,3.8
same,Chlorobutanol,"[9]; 5° C., 1 month",0.49% w/v and 0.48% w/v
same,Chlorobutanol,"[9]; 5° C., 2 months",0.48% w/v and 0.47% w/v
same,Chlorobutanol,"[9]; 5° C., 3 months",0.48% w/v and 0.47% w/v
same,Chlorobutanol,"[9]; 5° C., 6 months",0.47% w/v and 0.48% w/v
same,Chlorobutanol,"[9]; 5° C., 9 months",0.48% w/v and 0.47% w/v
same,Chlorobutanol,"[9]; 5° C., 12 months",0.48% w/v and 0.49% w/v
same,Chlorobutanol,"[9]; 5° C., 18 months",0.49% w/v and 0.48% w/v
same,Chlorobutanol,"[9]; 5° C., 24 months",0.49% w/v and 0.48% w/v
same,Chlorobutanol,"[9]; 5° C., Initial",0.48% w/v and 0.47% w/v
same,Chlorobutanol,"[9]; 40° C., 1 month",0.48% w/v
same,Chlorobutanol,"[9]; 40° C., 2 months",0.50% w/v
same,Chlorobutanol,"[9]; 40° C., 3 months",0.47% w/v
same,Chlorobutanol,"[9]; 40° C., Initial",0.49% w/v
same,increase of clearance of vasopressin in pregnancy,[10]; at term,up to 5 fold
same,clearance of vasopressin in pregnancy,[10]; first trimester,only slightly increased
same,increase of clearance of vasopressin in pregnancy,[10]; third trimester,about 4 fold
